Test results taken from patent US20090215805A1, “4-Heteroaryl Pyrimidine Derivatives and use thereof as Protein Kinase Inhibitors” (Cyclacel Limited, priority 2005, published 2009).

Key:
[1] = tested on: PEPCK gene expression in HEPG2 cells; assay: PEPCK gene expression in HEPG2 cells - QPCR assay; assay type: cell-based; details: HEPG2, Dex/cAMP +, percentage of the dexametasone-induced stimulation
Experimental: PEPCK gene expression was studied in HEPG2 (hepatocarcinoma) cells, seeded in 6-well plate at […] cells per well. The cells were serum starved for 20 hours before treatment with dexamethasone/cAMP (stimulator of PEPCK gene expression) in the presence or absence of insulin or GSK3 inhibitors. After 3 hours treatment the cells were harvested, lysed and RNA extracted using mini RNeasy spin column (Quiagen). The primer set COD2063/COD2064 (350 bp) was used for PEPCK gene. The one step RT-PCR was carried out using the Lightcycler-RNA Master SYBR Green 1 Kit. The qPCR analysis calculates the number of the PCR cycles required for the PCR product amplification to reach logarithmic phase. QPCR for a housekeeping gene—28S—was used for normalisation. PEPCK is a key enzyme in gluconeogenesis in the liver and it is known be negatively regulated by insulin via inhibition of GSK3. The effect of GSK3 inhibitors on PEPCK gene expression was studied in HEPG2 (hepatocarcinoma) cells treated with dexametasone/cAMP (a positive regulator of PEPCK gene expression) in the presence or absence of insulin or GSK3 inhibitors.

CDK2/E = CDK2/E (Homo sapiens, UniProt P24941); assay: CDK2/E in vitro kinase assay; assay type: biochemical
Experimental: (§1) The compounds of the invention above were investigated for their ability to inhibit the enzymatic activity of various protein kinases. This was achieved by measurement of incorporation of radioactive phosphate from ATP into appropriate polypeptide substrates. Recombinant protein kinases and kinase complexes were produced or obtained commercially. Assays were performed using 96-well plates and appropriate assay buffers (typically 25 mM β-glycerophosphate, 20 mM MOPS, 5 mM EGTA, 1 mM DTT, 1 mM […], pH 7.4), into which were added 2-4 μg of active enzyme with appropriate substrates. The reactions were initiated by addition of Mg/ATP mix (15 mM MgCl2+100 μM ATP with 30-50 kBq per well of [γ-^32P]-ATP) and mixtures incubated as required at 30° C. Reactions were stopped on ice, followed by filtration through p81 filterplates or GF/C filterplates (Whatman Polyfiltronics, Kent, UK). After washing 3 times with 75 mM aq orthophosphoric acid, plates were dried, scintillant added and incorporated radioactivity measured in a scintillation counter (TopCount, Packard Instruments, Pangbourne, Berks, UK). Compounds for kinase assay were made up as 10 mM stocks in DMSO and diluted into 10% DMSO in assay buffer. Data was analysed using curve-fitting software (GraphPad Prism version 3.00 for Windows, GraphPad Software, San Diego Calif. USA) to determine IC50 values (concentration of test compound which inhibits kinase activity by 50%).

GSK3 (GSK-3β) = GSK3 (GSK-3β) (Oryctolagus cuniculus, UniProt A0A5F9DUX8); assay: GSK-3 kinase assay; assay type: biochemical, rabbit; details: in vitro kinase assay
Sequence of GSK3 (GSK-3β) (A0A5F9DUX8 entry or part of it): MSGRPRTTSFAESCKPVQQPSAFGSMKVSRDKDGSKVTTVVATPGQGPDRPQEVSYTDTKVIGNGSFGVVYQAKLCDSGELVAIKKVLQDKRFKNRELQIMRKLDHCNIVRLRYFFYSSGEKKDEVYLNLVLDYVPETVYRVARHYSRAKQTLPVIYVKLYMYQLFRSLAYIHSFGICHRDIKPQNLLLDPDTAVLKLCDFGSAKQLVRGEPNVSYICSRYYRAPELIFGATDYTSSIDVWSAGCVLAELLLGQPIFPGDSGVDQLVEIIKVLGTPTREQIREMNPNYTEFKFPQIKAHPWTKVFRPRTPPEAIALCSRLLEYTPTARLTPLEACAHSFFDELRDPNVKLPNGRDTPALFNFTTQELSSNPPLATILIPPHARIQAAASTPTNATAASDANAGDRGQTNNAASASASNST
Experimental: GSK-3 was obtained from New England Biolabs (UK) Ltd., Hitchin, Herts. The recombinant enzyme was isolated from a strain of E. coli that carries a clone expressing GSK-3β derived from a rabbit skeletal muscle cDNA library [Wang, Q. M.; Fiol, C. J.; DePaoli-Roach, A. A.; Roach, P. J. J. Biol. Chem., 1994, 269, 14566]. Inhibition of GSK-3 function was assessed by measurement of phosphorylation of CREB phosphopeptide KRREILSRRPphosphoSYR in the presence of test compounds. Using a 96-well assay format, GSK3 (7.5 U) was incubated for 30 min at 30° C. in a total volume of 25 μL in 20 mM MOPS pH 7.2, 25 mM β-glycerophosphate, 5 mM EGTA, 1 mM DTT, 1 mM […], 40 μM CREB peptide, 15 mM MgCl2 and 100 μM ATP (containing 0.25 μCi [γ-^32P]-ATP) in the presence of varying concentrations of test compound. The samples were transferred to 96-well p81 filter plates (Whatman Polyfiltronics, Kent, UK), and the plates were washed 4 times with 200 μL/well of 75 mM aq orthophosphoric acid. Scintillation liquid (50 μL) was added to each well, and incorporated radioactivity for each sample was determined using a scintillation counter (TopCount, Packard Instruments, Pangboume, Berks, UK).

[2] = tested on: Glycogen synthase activation in HEK293 cells; assay: Glycogen synthase activation in HEK293 cells; assay type: cell-based; details: Homo sapiens, 1.5 h, 90 minutes treatment
Experimental: (§2) HEK293 cells, mouse adipocytes or rat myotubes were treated in 10 cm Petri dishes with different concentrations of GSK3 inhibitors for 90 minutes. At the end of the treatment period the cells were washed and scraped in ice cold PBS buffer supplemented with 20 mM NaF. The cells were pelleted by centrifugation and lysed in 300 μl buffer-50 mM HEPES pH 7.5, 10 mM EDTA, 100 mM NaF, 5 mM DTT, protease inhibitor cocktail (Sigma). After incubation for 30 min on ice the samples were cleared by centrifugation. The activity of glycogen synthase was determined in the soluble fraction at two different concentrations of […]-low (0.1 mM) and high (10 mM). The reaction was carried out for 30 min in a buffer—50 mM Tris pH 7.8, 20 mM EDTA, 25 mM NaF, S mM DTT. The reaction mixture (total volume of 90 μl) consisted as well of 1% glycogen, 0.3 mM UDP-glucose and 0.06 μCi ^14C-UDP-glucose. Reaction was stopped by transfer of 70 μl to a GFC 96-well filter plate, containing 140 μl 100% ethanol an the glycogen was allowed to precipitate for 1 h at 4° C. The wells were washed 2 times with 200 μl 66% ethanol and than let to dry. Subsequently, 100 μl of scintillation liquid were added, and plates were sealed and counted in a Packard Topcounter. Glycogen synthase activation was calculated as the ratio between the incorporation of labelled ^14C-UDP-glucose in glycogen at low and high concentration of […] (fractional velocity).

[3] = tested on: Glycogen synthase activation in mouse adipocytes (3T3-L1); assay: Glycogen synthase activation in mouse adipocytes (3T3-L1); assay type: cell-based; details: 1.5 h; 3T3-L1 mouse adipocytes, 90 minutes treatment
Experimental: 3T3-L1 mouse pre-adipocytes were grown in DMEM supplemented with 10% FCS and pen/strep until fully confluent. Cell differentiation was initiated by the addition of 0.5 mM IBMX (2-isobutyl-1-methylxanthine), 0.25 μM Dexamethasone and 1 μg/ml insulin into the growth media. The differentiation media was replaced after 4 days and 7 days after the initiation of differentiation the cells were grown for additional 3 days in DMEM, 10% FCS and pen/strep.
as §2

[4] = tested on: Glycogen synthase activation in rat myotubes (L6.G8.C5); assay: Glycogen synthase activation in rat myotubes (L6.G8.C5); assay type: cell-based; details: Myotube, 1.5 h, 90 minutes treatment
Experimental: Rat myotubes were differentiated from L6.G8.C5 myoblasts, which were grown in DMEM, 10% FCS and pen/strep until confluent. The media was then removed, cells washed with PBS and differentiation media containing minimal essential media eagles (alpha modified) supplemented with 2% FCS and pen/strep. The cells were cultured for 3-4 days until >90% of cells have formed multinucleated myotubes. The differentiated cells were then used for determination of glycogen synthase activation after treatment with GSK3 inhibitors.
as §2

DM Aur A (Dm AK-A) = DM Aur A (Dm AK-A) (Drosophila melanogaster, UniProt Q9VGF9); assay: Dm aurora A kinase assay (DM Aur A / Dm AK-A); assay type: biochemical; details: for Ki: in vitro kinase assay; for IC50: values without asterisk (DM aurora A)
Sequence of DM Aur A (Dm AK-A) (Q9VGF9 entry or part of it): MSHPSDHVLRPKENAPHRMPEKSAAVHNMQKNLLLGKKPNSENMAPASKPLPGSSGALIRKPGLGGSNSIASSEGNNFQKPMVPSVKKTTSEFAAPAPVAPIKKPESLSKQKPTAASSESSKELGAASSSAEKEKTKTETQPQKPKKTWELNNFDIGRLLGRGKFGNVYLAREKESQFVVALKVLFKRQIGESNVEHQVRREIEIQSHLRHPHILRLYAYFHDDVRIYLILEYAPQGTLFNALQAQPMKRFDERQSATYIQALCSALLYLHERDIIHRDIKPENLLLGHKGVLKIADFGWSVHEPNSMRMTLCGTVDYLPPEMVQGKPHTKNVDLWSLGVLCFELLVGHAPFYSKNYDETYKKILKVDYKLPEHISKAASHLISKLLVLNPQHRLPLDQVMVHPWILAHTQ
Experimental: as §1

Ki (CDK2/E) | Ki (GSK3 (GSK-3β)) | Ki (DM Aur A (Dm AK-A)) | IC50 (DM Aur A (Dm AK-A)) | Molecule | % PEPCK activity ([1]; concentration 0.1 uM) | EC50 [2] | EC50 [3] | EC50 [4] | % PEPCK activity ([1]; concentration 1 uM) | % PEPCK activity ([1]; concentration 10 uM)
 |  |  |  | Insulin: insulin, comparator known to negatively regulate PEPCK via inhibition of GSK3 | 67.5 ± 9.0% |  |  |  |  | 
119 nM | 5 nM |  |  | Cc1[nH]c(C#N)c(C)c1-c1ccnc(Nc2ccc(N(C)C)c([N+](=O)[O-])c2)n1 [Compound 18] |  | 1500 nM | 4120 nM |  |  | 
188 nM | 5 nM | 177 nM | 453 nM | COc1ccc(Nc2nccc(-c3c(C)[nH]c(C#N)c3C)n2)cn1 [Compound 28] |  | 6600 nM | 7900 nM | 9000 nM | 48.4 ± 7.3% | 11.7 ± 1.3%
377 nM | 3 nM | 161 nM | 413 nM | CCNS(=O)(=O)c1cccc(Nc2nccc(-c3c(C)[nH]c(C#N)c3C)n2)c1 [Compound 32] |  | 4100 nM | 2100 nM | 5000 nM |  | 
197 nM | 3 nM | 681 nM | 861 nM | Cc1[nH]c(C#N)c(C)c1-c1ccnc(Nc2ccc(Cl)nc2)n1 [Compound 30] |  | 2200 nM | 4300 nM | 2300 nM | 22.8 ± 12.1% | 16.2 ± 3.8%

Molecule | Ki (CDK2/E) | Ki (GSK3 (GSK-3β)) | Ki (DM Aur A (Dm AK-A)) | IC50 (DM Aur A (Dm AK-A)) | % PEPCK activity ([1]; concentration 0.1 uM) | EC50 [2] | EC50 [3] | EC50 [4] | % PEPCK activity ([1]; concentration 1 uM) | % PEPCK activity ([1]; concentration 10 uM)
Cc1[nH]c([N+](=O)[O-])c(C)c1-c1ccnc(Nc2ccc(N(C)C)c([N+](=O)[O-])c2)n1 [Compound 19] | 41 nM | 4 nM |  |  |  | 700 nM | 5600 nM | 6300 nM | 72.9 ± 9.06% | 45.4 ± 1.9%
